In the NIST ThermoML archive (doi:10.1016/j.jct.2013.08.034):

Assay: xn = mol fraction of the nth substance listed
Conditions: 101 kPa, Liquid; for electrical conductivity: Conductivity Meter Jenco 3107; for viscosity: Cone and plate viscometry; for mass density: Vibrating tube method

CC1COC(=O)O1 (centres undefined) [4-methyl-1,3-dioxolan-2-one] + CCCC[n+]1ccn(C)c1.O=S(=O)([N-]S(=O)(=O)C(F)(F)F)C(F)(F)F
Conditions	electrical conductivity [S/m]	mass density [kg/m3]	viscosity [mPa·s]
293.15 K, x2 = 0	–	–	2.86
293.15 K, x2 = 0.0146	–	1216.01	–
293.15 K, x2 = 0.0296	–	1226.83	–
293.15 K, x2 = 0.0453	–	1237.53	–
293.15 K, x2 = 0.0502	0.792	–	–
293.15 K, x2 = 0.0616	–	1247.91	–
293.15 K, x2 = 0.0732	–	1254.92	–
293.15 K, x2 = 0.0997	–	1269.69	–
293.15 K, x2 = 0.1	–	–	4.74
293.15 K, x2 = 0.1004	0.92	–	–
293.15 K, x2 = 0.2001	1.08	–	–
293.15 K, x2 = 0.2002	–	–	7.21
293.15 K, x2 = 0.2004	–	1314.48	–
293.15 K, x2 = 0.3002	0.938	–	–
293.15 K, x2 = 0.3007	–	–	10.74
293.15 K, x2 = 0.3081	–	1348.61	–
293.15 K, x2 = 0.3998	–	–	14.73
293.15 K, x2 = 0.4004	–	1370.63	–
293.15 K, x2 = 0.4005	0.814	–	–
293.15 K, x2 = 0.5004	–	–	20.17
293.15 K, x2 = 0.5007	0.752	–	–
293.15 K, x2 = 0.5021	–	1389.4	–
293.15 K, x2 = 0.5839	–	1401.58	–
293.15 K, x2 = 0.6002	–	–	26.37
293.15 K, x2 = 0.6003	0.669	–	–
293.15 K, x2 = 0.6902	–	1414.42	–
293.15 K, x2 = 0.6979	–	–	33.56
293.15 K, x2 = 0.6989	0.578	–	–
293.15 K, x2 = 0.7989	–	1424.99	–
293.15 K, x2 = 0.8001	0.497	–	–
293.15 K, x2 = 0.8015	–	–	42.09
293.15 K, x2 = 0.8959	0.422	–	50.34
293.15 K, x2 = 0.898	–	1432.81	–
298.15 K, x2 = 0	–	–	2.65
298.15 K, x2 = 0.0146	–	1210.26	–
298.15 K, x2 = 0.0296	–	1221.14	–
298.15 K, x2 = 0.0453	–	1231.8	–
298.15 K, x2 = 0.0502	0.899	–	–
298.15 K, x2 = 0.0616	–	1242.22	–
298.15 K, x2 = 0.0732	–	1249.22	–
298.15 K, x2 = 0.0997	–	1264.08	–
298.15 K, x2 = 0.1	–	–	4.29
298.15 K, x2 = 0.1004	1.02	–	–
298.15 K, x2 = 0.2001	1.21	–	–
298.15 K, x2 = 0.2002	–	–	6.43
298.15 K, x2 = 0.2004	–	1308.99	–
298.15 K, x2 = 0.3002	1.06	–	–
298.15 K, x2 = 0.3007	–	–	9.27
298.15 K, x2 = 0.3081	–	1343.32	–
298.15 K, x2 = 0.3998	–	–	12.6
298.15 K, x2 = 0.4004	–	1365.43	–
298.15 K, x2 = 0.4005	0.924	–	–
298.15 K, x2 = 0.5004	–	–	17.01
298.15 K, x2 = 0.5007	0.855	–	–
298.15 K, x2 = 0.5021	–	1384.34	–
298.15 K, x2 = 0.5839	–	1396.54	–
298.15 K, x2 = 0.6002	–	–	21.71
298.15 K, x2 = 0.6003	0.761	–	–
298.15 K, x2 = 0.6902	–	1409.46	–
298.15 K, x2 = 0.6979	–	–	27.64
298.15 K, x2 = 0.6989	0.667	–	–
298.15 K, x2 = 0.7989	–	1420.01	–
298.15 K, x2 = 0.8001	0.581	–	–
298.15 K, x2 = 0.8015	–	–	34.76
298.15 K, x2 = 0.8959	0.49	–	40.95
298.15 K, x2 = 0.898	–	1427.78	–
303.15 K, x2 = 0	–	–	2.44
303.15 K, x2 = 0.0146	–	1205.11	–
303.15 K, x2 = 0.0296	–	1216.01	–
303.15 K, x2 = 0.0453	–	1226.7	–
303.15 K, x2 = 0.0502	0.963	–	–
303.15 K, x2 = 0.0616	–	1237.2	–
303.15 K, x2 = 0.0732	–	1244.2	–
303.15 K, x2 = 0.0997	–	1259.1	–
303.15 K, x2 = 0.1	–	–	3.84
303.15 K, x2 = 0.1004	1.16	–	–
303.15 K, x2 = 0.2001	1.35	–	–
303.15 K, x2 = 0.2002	–	–	5.81
303.15 K, x2 = 0.2004	–	1303.96	–
303.15 K, x2 = 0.3002	1.21	–	–
303.15 K, x2 = 0.3007	–	–	8.07
303.15 K, x2 = 0.3081	–	1338.4	–
303.15 K, x2 = 0.3998	–	–	10.8
303.15 K, x2 = 0.4004	–	1360.5	–
303.15 K, x2 = 0.4005	1.07	–	–
303.15 K, x2 = 0.5004	–	–	14.41
303.15 K, x2 = 0.5007	0.963	–	–
303.15 K, x2 = 0.5021	–	1379.5	–
303.15 K, x2 = 0.5839	–	1391.7	–
303.15 K, x2 = 0.6002	–	–	18.4
303.15 K, x2 = 0.6003	0.86	–	–
303.15 K, x2 = 0.6902	–	1404.6	–
303.15 K, x2 = 0.6979	–	–	22.9
303.15 K, x2 = 0.6989	0.764	–	–
303.15 K, x2 = 0.7989	–	1415.1	–
303.15 K, x2 = 0.8001	0.665	–	–
303.15 K, x2 = 0.8015	–	–	28.81
303.15 K, x2 = 0.8959	0.563	–	33.59
303.15 K, x2 = 0.898	–	1422.88	–
308.15 K, x2 = 0	–	–	2.23
308.15 K, x2 = 0.0146	–	1199.79	–
308.15 K, x2 = 0.0296	–	1210.69	–
308.15 K, x2 = 0.0453	–	1221.41	–
308.15 K, x2 = 0.0502	1.05	–	–
308.15 K, x2 = 0.0616	–	1231.88	–
308.15 K, x2 = 0.0732	–	1238.89	–
308.15 K, x2 = 0.0997	–	1253.78	–
308.15 K, x2 = 0.1	–	–	3.51
308.15 K, x2 = 0.1004	1.3	–	–
308.15 K, x2 = 0.2001	1.51	–	–
308.15 K, x2 = 0.2002	–	–	5.1
308.15 K, x2 = 0.2004	–	1298.88	–
308.15 K, x2 = 0.3002	1.36	–	–
308.15 K, x2 = 0.3007	–	–	7.11
308.15 K, x2 = 0.3081	–	1333.39	–
308.15 K, x2 = 0.3998	–	–	9.42
308.15 K, x2 = 0.4004	–	1355.48	–
308.15 K, x2 = 0.4005	1.22	–	–
308.15 K, x2 = 0.5004	–	–	12.36
308.15 K, x2 = 0.5007	1.1	–	–
308.15 K, x2 = 0.5021	–	1374.5	–
308.15 K, x2 = 0.5839	–	1386.81	–
308.15 K, x2 = 0.6002	–	–	15.75
308.15 K, x2 = 0.6003	0.972	–	–
308.15 K, x2 = 0.6902	–	1399.67	–
308.15 K, x2 = 0.6979	–	–	19.44
308.15 K, x2 = 0.6989	0.859	–	–
308.15 K, x2 = 0.8001	0.755	–	–
308.15 K, x2 = 0.8015	–	–	24.1
308.15 K, x2 = 0.8959	0.642	–	27.95
